Values joined by “and” are separate entries in the source; they are usually repeats but may differ in a detail not shown here. Equal entries are not always repeated. Where two headings read alike, the source gives them in different places.
Columns and labels:
Human mTOR (FLAG-TOR) = Human mTOR (FLAG-TOR) (Homo sapiens, UniProt P42345); test: mTOR kinase assay (DELFIA format, purified enzyme); assay type: biochemical
[1] = system: human prostate PC3-mm2 tumor cell line; test: In vitro cell culture growth assay (MTS), PC3-mm2; assay type: cell-based
[2] = system: human breast MDA-MB-361 tumor cell line; test: In vitro cell culture growth assay (MTS), MDA-MB-361; assay type: cell-based
PI3K-α = PI3K-α (Homo sapiens, UniProt P42336); test: PI3K-alpha fluorescence polarization assay; settings: read-out: IC50 PI3Kα
Sequence of PI3K-α (P42336 whole entry, species assumed): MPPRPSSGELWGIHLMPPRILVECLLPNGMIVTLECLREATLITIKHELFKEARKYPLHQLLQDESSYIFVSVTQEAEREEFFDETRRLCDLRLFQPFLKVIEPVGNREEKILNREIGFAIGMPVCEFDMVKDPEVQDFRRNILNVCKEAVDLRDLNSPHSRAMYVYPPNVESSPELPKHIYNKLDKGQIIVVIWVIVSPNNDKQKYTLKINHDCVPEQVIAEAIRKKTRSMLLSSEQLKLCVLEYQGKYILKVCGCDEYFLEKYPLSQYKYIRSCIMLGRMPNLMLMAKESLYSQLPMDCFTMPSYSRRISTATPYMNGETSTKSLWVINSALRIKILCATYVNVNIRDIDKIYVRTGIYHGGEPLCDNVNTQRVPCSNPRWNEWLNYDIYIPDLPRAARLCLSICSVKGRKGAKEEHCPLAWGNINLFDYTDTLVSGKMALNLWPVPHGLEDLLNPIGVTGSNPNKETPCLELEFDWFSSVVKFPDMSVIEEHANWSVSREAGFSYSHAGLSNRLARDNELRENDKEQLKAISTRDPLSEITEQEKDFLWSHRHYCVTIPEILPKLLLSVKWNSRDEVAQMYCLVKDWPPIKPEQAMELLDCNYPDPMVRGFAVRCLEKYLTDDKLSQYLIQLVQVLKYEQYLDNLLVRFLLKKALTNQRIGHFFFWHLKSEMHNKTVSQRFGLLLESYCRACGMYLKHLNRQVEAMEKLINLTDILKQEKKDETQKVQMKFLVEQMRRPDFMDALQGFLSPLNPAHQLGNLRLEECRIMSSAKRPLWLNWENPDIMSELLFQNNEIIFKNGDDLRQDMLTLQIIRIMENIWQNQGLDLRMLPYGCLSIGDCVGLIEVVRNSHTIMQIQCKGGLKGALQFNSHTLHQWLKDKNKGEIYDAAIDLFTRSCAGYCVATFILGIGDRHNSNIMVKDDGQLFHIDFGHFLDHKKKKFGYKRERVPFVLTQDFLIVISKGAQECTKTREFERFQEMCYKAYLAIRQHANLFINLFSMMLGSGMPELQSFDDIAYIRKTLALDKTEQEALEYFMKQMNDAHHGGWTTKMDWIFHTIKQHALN
Sequence of PI3K-α (P27986 whole entry partner, species assumed): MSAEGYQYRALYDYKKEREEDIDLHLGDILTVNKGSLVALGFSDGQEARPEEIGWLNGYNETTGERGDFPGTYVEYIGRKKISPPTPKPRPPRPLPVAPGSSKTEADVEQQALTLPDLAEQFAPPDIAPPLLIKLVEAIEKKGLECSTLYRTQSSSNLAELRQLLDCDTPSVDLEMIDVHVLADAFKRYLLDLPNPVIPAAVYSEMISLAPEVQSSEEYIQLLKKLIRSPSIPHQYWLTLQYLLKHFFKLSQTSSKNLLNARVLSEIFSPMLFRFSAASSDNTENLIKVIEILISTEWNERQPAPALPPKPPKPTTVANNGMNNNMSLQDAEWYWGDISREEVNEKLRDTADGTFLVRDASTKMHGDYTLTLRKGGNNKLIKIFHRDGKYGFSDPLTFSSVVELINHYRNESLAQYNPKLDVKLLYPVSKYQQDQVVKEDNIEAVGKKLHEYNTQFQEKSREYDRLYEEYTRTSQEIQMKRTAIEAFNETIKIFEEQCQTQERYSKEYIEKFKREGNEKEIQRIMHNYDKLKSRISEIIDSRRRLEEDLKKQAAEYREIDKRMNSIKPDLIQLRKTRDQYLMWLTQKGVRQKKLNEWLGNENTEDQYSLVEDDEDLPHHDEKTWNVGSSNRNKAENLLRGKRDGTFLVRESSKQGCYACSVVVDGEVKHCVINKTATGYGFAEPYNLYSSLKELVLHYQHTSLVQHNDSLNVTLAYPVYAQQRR

PI3K-γ = PI3K-γ (Homo sapiens, UniProt P48736); test: PI3K-gamma fluorescence polarization assay; settings: read-out: IC50 PI3Kγ
Sequence of PI3K-γ (P48736 whole entry, species assumed): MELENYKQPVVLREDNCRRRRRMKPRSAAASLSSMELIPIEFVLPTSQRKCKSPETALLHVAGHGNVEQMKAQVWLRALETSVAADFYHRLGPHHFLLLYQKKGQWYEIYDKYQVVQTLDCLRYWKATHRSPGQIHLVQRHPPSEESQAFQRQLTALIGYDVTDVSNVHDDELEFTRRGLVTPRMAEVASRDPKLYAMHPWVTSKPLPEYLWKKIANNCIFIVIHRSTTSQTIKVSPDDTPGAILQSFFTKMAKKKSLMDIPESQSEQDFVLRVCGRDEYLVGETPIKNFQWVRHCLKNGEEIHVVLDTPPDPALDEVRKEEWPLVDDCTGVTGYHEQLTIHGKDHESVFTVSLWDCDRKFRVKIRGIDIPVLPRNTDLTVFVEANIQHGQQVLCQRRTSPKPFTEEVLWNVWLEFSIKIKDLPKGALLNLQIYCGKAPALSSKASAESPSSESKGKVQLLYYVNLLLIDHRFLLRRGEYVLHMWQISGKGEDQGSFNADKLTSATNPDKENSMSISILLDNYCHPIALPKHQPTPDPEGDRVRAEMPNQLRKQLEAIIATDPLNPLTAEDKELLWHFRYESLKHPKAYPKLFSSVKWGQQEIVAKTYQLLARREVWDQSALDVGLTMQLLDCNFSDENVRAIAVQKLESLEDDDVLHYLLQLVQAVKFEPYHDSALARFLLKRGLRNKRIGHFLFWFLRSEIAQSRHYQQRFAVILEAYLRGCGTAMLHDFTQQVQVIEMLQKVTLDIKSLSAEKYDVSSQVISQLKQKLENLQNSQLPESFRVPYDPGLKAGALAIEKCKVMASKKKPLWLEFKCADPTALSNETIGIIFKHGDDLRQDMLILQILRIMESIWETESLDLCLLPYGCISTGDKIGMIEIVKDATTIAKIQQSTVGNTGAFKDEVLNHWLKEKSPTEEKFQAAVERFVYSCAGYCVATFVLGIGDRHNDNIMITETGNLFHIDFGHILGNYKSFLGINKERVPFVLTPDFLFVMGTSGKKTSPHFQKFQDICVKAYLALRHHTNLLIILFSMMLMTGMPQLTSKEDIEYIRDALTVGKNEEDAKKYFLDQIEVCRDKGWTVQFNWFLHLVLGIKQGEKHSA

[3] = Homo sapiens, PC3MM2, 72 h, MTS cell growth assay, three days after drug treatment, read-out: IC50 PC3-mm2
[4] = Homo sapiens, MDA-MB-361, 72 h, MTS cell growth assay, three days after drug treatment, read-out: IC50 MDA-MB-361
[5] = Homo sapiens, PC3MM2, 72 h, MTS cell growth assay, three days after drug treatment, PC3-mm2 cells, read-out: IC50 PC3-mm2
[6] = Homo sapiens, MDA-MB-361, 72 h, MTS cell growth assay, three days after drug treatment, MDA-MB-361 cells, read-out: IC50 MDA-MB-361
[7] = Homo sapiens, PC3MM2, 72 h, read-out: IC50 PC3-mm2
[8] = Homo sapiens, MDA-MB-361, 72 h, read-out: IC50 MDA-MB-361
[9] = Homo sapiens, 72 h, MTS cell growth assay, three days after drug treatment, MDA-MB-361 cells, read-out: IC50 MDA-MB-361

Sequence of Human mTOR (FLAG-TOR) (P42345 1360-2549 limits assumed): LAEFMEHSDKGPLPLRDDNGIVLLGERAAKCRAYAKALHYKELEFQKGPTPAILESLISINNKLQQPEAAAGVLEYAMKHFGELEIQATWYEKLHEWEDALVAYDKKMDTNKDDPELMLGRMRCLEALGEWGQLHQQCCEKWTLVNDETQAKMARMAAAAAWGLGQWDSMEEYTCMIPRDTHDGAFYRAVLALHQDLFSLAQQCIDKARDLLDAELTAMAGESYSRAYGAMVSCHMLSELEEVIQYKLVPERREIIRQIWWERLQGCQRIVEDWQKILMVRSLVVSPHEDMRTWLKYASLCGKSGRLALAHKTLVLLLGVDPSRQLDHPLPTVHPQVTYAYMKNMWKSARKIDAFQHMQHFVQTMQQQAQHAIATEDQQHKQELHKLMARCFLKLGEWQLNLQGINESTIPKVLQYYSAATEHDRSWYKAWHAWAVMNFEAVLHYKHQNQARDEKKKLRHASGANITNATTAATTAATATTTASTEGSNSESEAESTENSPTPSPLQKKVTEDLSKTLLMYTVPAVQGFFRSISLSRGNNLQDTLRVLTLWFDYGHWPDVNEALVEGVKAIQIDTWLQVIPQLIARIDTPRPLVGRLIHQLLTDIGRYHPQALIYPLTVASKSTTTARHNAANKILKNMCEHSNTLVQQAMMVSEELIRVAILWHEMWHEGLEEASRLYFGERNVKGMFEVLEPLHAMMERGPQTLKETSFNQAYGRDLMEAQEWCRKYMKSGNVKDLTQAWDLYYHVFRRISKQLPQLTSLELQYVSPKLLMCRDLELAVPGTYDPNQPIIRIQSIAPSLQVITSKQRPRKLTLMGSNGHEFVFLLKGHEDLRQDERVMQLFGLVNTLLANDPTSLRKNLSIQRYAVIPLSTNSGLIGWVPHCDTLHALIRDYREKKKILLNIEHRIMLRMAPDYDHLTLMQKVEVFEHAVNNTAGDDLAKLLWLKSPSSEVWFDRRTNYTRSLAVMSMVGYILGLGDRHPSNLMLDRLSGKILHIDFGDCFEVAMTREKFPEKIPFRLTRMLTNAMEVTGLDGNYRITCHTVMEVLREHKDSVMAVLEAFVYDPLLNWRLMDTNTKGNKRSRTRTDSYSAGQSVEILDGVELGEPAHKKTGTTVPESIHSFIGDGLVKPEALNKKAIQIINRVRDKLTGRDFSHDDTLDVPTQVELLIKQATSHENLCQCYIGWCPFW

| SMILES | IC50 (Human mTOR (FLAG-TOR); read-out: IC50 mTOR) | IC50 [1, 3] | IC50 [2, 4] | IC50 (PI3K-α) | IC50 [1, 5] | further results |
| --- | --- | --- | --- | --- | --- | --- |
| O=C(Nc1ccc(-c2nc(N3CCOCC3)nc(N3CCOCC3)n2)cc1)Nc1cccnc1 [Example 2, 1-[4-(4,6-dimorpholin-4-yl-1,3,5-triazin-2-yl)phenyl]-3-pyridin-3-ylurea] | 1 nM | 43 nM | 45 nM |  |  |  |
| O=C(Nc1ccc(-c2nc(N3CCOCC3)nc(N3CCOCC3)n2)cc1)Nc1cccs1 [Example 4, 1-[4-(4,6-dimorpholin-4-yl-1,3,5-triazin-2-yl)phenyl]-3-thiophen-2-ylurea] | 1.7 nM | 43 nM | 45 nM |  |  |  |
| O=C(Nc1ccc(-c2nc(N3CCOCC3)nc(N3CCOCC3)n2)cc1)Nc1ccc(F)cc1F [Example 11, (2,4-difluorophenyl)-3-[4-(4,6-dimorpholin-4-yl-1,3,5-triazin-2-yl)phenyl]urea] | 9.25 nM |  |  |  |  | IC50 ([1]; Homo sapiens, PC3MM2, 72 h, read-out: IC50 PC3-mm2, MTS cell growth assay, three days after drug treatment): 5630 nM; IC50 ([2]; Homo sapiens, MDA-MB-361, 72 h, read-out: IC50 MDA-MB-361, MTS cell growth assay, three days after drug treatment): 794 nM |
| CCN(CC)CCOC(=O)c1ccc(NC(=O)Nc2ccc(-c3nc(N4CCOCC4)nc(N4C5CCC4COC5)n3)cc2)cc1 [Example 40, 2-(diethylamino)ethyl 4-[({4-[4-morpholin-4-yl-6-(3-oxa-8-azabicyclo[3.2.1]oct-8-yl)-1,3,5-triazin-2-yl]phenyl}carbamoyl)amino]benzoate] | 0.66 nM | 62 nM | < 30 nM |  | 62 nM | IC50 [2, 6]: < 30 nM |
| CC(C)Oc1nc(-c2ccc(NC(=O)Nc3ccc(C(=O)NC4CCN(C)CC4)cc3)cc2)nc(N2CCOCC2)n1 [Example 97, 4-({[4-(4-isopropoxy-6-morpholin-4-yl-1,3,5-triazin-2-yl)phenyl]carbamoyl}amino)-N-(1-methylpiperidin-4-yl)benzamide] | 1.1 nM and 1.2 nM |  |  |  |  | IC50 [1, 7]: 52 nM; IC50 [2, 8]: < 30 nM |
| CC(C)Oc1nc(-c2ccc(NC(=O)Nc3ccc(C(=O)NCCN(C)C)cc3)cc2)nc(N2CCOCC2)n1 [Example 187, N-[2-(dimethylamino)ethyl]-4-({[4-(4-isopropoxy-6-morpholin-4-yl-1,3,5-triazin-2-yl)phenyl]carbamoyl}amino)benzamide] |  |  |  | 3 nM |  | IC50 (Human mTOR (FLAG-TOR); IC50 mTOR): 3.5 nM; IC50 [1, 7]: 41 nM; IC50 [2, 8]: 11 nM |
| CCN(CC)C(=O)[n+]1ccc(NC(=O)Nc2ccc(-c3nc(N4CCOCC4)nc(N4C5CCC4COC5)n3)cc2)cc1 [Example 201, 1-(diethylcarbamoyl)-4-[({4-[4-morpholin-4-yl-6-(3-oxa-8-azabicyclo[3.2.1]oct-8-yl)-1,3,5-triazin-2-yl]phenyl}carbamoyl)amino]pyridinium] | 0.9 nM | 44 nM | 29 nM |  | 44 nM |  |
| COc1nc(-c2ccc(NC(=O)Nc3ccc(C(=O)N(C)CCN(C)C)cc3)cc2)nc(N2CCOCC2)n1 [Example 243, N-[2-(dimethylamino)ethyl]-4-({[4-(4-methoxy-6-morpholin-4-yl-1,3,5-triazin-2-yl)phenyl]carbamoyl}amino)-N-methylbenzamide] |  |  |  | 1 nM |  | IC50 (Human mTOR (FLAG-TOR); IC50 mTOR): 7.7 nM; IC50 [1, 7]: 34 nM; IC50 [2, 8]: 15 nM; IC50 (PI3K-α; listed as 720): 0.4 nM |
| COc1nc(-c2ccc(NC(=O)Nc3ccc(C(=O)NCCN(C)C)cc3)cc2)nc(N2CCOCC2)n1 [Example 244, N-[2-(dimethylamino)ethyl]-4-({[4-(4-methoxy-6-morpholin-4-yl-1,3,5-triazin-2-yl)phenyl]carbamoyl}amino)benzamide] |  |  |  | 1 nM |  | IC50 (Human mTOR (FLAG-TOR); IC50 mTOR): 5.1 nM and 5.65 nM; IC50 [1, 7]: 71 nM; IC50 [2, 8]: < 31 nM; IC50 (PI3K-α; listed as 721): 0.6 nM |
| O=C(Nc1ccc(C(=O)NCCN2CCCCC2)cc1)Nc1ccc(-c2nc(O[C@H]3CCOC3)nc(N3CCOCC3)n2)cc1 [Example 520, 4-{[(4-{4-morpholin-4-yl-6-[(3S)-tetrahydrofuran-3-yloxy]-1,3,5-triazin-2-yl}phenyl)carbamoyl]amino}-N-(2-piperidin-1-ylethyl)benzamide] |  |  |  | 1.4 nM | 18 nM | IC50 (Human mTOR (FLAG-TOR); IC50 mTOR): 0.38 nM; IC50 [2, 8]: 5 nM |
| CN1CCN(C(=O)c2ccc(NC(=O)Nc3ccc(-c4nc(N5CCCOCC5)nc(N5CCOCC5)n4)cc3)cc2)CC1 [Example 573, 1-{4-[(4-methylpiperazin-1-yl)carbonyl]phenyl}-3-{4-[4-morpholin-4-yl-6-(1,4-oxazepan-4-yl)-1,3,5-triazin-2-yl]phenyl}urea] | 4 nM |  |  |  | 206 nM | IC50 (PI3K-γ): 64 nM; IC50 [2, 6]: 99 nM |
| C[C@H]1COCCN1c1nc(-c2ccc(NC(=O)Nc3ccc(C(=O)NCCN4CCCC4)cc3)cc2)nc(N2CCOCC2)n1 [Example 622, 4-{[(4-{4-[(3S)-3-methylmorpholin-4-yl]-6-morpholin-4-yl-1,3,5-triazin-2-yl}phenyl)carbamoyl]amino}-N-(2-pyrrolidin-1-ylethyl)benzamide] |  |  |  | 3 nM | 25 nM | IC50 (PI3K-γ): 50.5 nM; IC50 [2, 9]: 5 nM |
| C[C@@H]1COCCN1c1nc(-c2ccc(NC(=O)Nc3ccc(C(=O)NCCN(C)C)cc3)cc2)nc(N2CCOC[C@@H]2C)n1 [Example 634, N-[2-(dimethylamino)ethyl]-4-{[(4-{4-[(3R)-3-methylmorpholin-4-yl]-6-[(3S)-3-methylmorpholin-4-yl]-1,3,5-triazin-2-yl}phenyl)carbamoyl]amino}benzamide] |  |  |  | 6 nM | 16 nM | IC50 (PI3K-γ): 122 nM; IC50 [2, 9]: 5 nM |
| O=C(Nc1ccc(C(=O)NCCN2CCOCC2)cc1)Nc1ccc(-c2nc(N3CCOCC3)nc(N3C4CCC3COC4)n2)cc1 [Example 702, N-(2-morpholin-4-ylethyl)-4-[({4-[4-morpholin-4-yl-6-(3-oxa-8-azabicyclo[3.2.1]oct-8-yl)-1,3,5-triazin-2-yl]phenyl}carbamoyl)amino]benzamide] | 0.555 nM |  |  |  | 14 nM | IC50 (PI3K-γ): 126 nM; IC50 [2, 9]: 4 nM |

Now from value to compound, other results behind:

| IC50 (Human mTOR (FLAG-TOR); read-out: IC50 mTOR) | IC50 [1, 3] | IC50 [2, 4] | SMILES | IC50 (PI3K-α) | IC50 [1, 5] | further results |
| --- | --- | --- | --- | --- | --- | --- |
| 8 nM and 68 nM |  |  | O=C(Nc1ccc(Cl)cc1)Nc1ccc(-c2nc(N3CCOCC3)nc(N3CCOCC3)n2)cc1 [Example 8, 1-(4-chlorophenyl)-3-[4-(4,6-dimorpholin-4-yl-1,3,5-triazin-2-yl)phenyl]-urea] | 20 nM |  | IC50 ([1]; MTS cell growth assay, three days after drug treatment, listed as 10, read-out: IC50 PC3-mm2): 1780 nM; IC50 ([2]; MTS cell growth assay, three days after drug treatment, listed as 10, read-out: IC50 MDA-MB-361): 2710 nM; IC50 (PI3K-α; listed as 10): 75 nM |
| 1 nM | 49 nM | < 30 nM | CC(O)c1ccc(NC(=O)Nc2ccc(-c3nc(N4CCOCC4)nc(N4CCOCC4)n3)cc2)cc1 (stereo not shown) [Example 52, 1-[4-(4,6-dimorpholin-4-yl-1,3,5-triazin-2-yl)phenyl]-3-[4-(1-hydroxyethyl)phenyl]urea] |  |  |  |
| 24 nM | 49 nM | 17 nM | CN(C)CCN(C)C(=O)c1ccc(NC(=O)Nc2ccc(-c3nc(N4CCC4)nc(N4CCOCC4)n3)cc2)cc1 [Example 197, 4-({[4-(4-azetidin-1-yl-6-morpholin-4-yl-1,3,5-triazin-2-yl)phenyl]carbamoyl}amino)-N-[2-(dimethylamino)ethyl]-N-methylbenzamide] |  |  |  |
| 18 nM |  |  | CC(C)N1CCN(C(=O)c2ccc(NC(=O)Nc3ccc(-c4nc(N5CCC5)nc(N5CCOCC5)n4)cc3)cc2)CC1 [Example 492, 1-[4-(4-azetidin-1-yl-6-morpholin-4-yl-1,3,5-triazin-2-yl)phenyl]-3-(4-{[4-(1-methylethyl)piperazin-1-yl]carbonyl}phenyl)urea] |  | 57 nM | IC50 (PI3K-γ): 35 nM; IC50 [2, 6]: 26 nM |
